The source made the active and inactive calls.
Legend:
[1] = biological target: T1, Ubiquitin-conjugating enzyme E2 N (Homo sapiens, UniProt P61088); assay type: functional
T1 sequence (P61088 whole entry): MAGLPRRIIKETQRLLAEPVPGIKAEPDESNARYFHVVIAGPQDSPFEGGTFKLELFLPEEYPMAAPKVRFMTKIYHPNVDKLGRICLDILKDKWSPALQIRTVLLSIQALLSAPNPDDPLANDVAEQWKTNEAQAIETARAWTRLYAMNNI

cells [2] = conditions: HEK293
cells [3] = conditions: A549
Bcl-2-related protein A1 = biological target: T2, Bcl-2-related protein A1 (Mus musculus, UniProt Q07440); assay type: functional;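 also: confirmatory dose–response counterscreen on Bfl-1, used to check hits from a UBC13 polyubiquitin inhibitor campaign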
T2 sequence (Q07440 whole entry): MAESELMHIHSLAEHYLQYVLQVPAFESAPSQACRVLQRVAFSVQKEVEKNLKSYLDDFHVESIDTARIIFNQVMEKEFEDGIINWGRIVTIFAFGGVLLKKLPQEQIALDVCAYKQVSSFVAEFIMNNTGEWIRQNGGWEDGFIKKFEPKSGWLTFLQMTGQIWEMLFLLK

[4] = biological target: T1, Ubiquitin-conjugating enzyme E2 N; assay type: functional; remark: listed apart in the source
[5] = viability loss in HepG2 liver cells – cell-based, ATP luminescence, cherry-pick, set 6, cytotoxicity control, dose response (AID 1053125); assay type: functional
Galanin receptor type 3 = biological target: T3, Galanin receptor type 3 (Homo sapiens, UniProt O60755); assay: Fluorescence-based cell-based primary high throughput dose response assay to identify antagonists of the Galanin Receptor 3 (GalR3).; assay type: functional
T3 sequence (O60755 whole entry): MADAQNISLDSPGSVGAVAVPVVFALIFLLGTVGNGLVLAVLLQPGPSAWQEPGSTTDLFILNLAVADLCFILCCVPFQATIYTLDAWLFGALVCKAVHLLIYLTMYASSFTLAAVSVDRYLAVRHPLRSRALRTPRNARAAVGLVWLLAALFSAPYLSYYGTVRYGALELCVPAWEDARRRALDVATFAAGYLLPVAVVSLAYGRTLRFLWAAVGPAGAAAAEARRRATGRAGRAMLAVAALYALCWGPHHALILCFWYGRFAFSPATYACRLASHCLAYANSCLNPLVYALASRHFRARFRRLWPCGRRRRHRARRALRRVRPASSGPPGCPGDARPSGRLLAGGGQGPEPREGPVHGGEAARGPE

Protein RecA = biological target: T4, Protein RecA (Mycobacterium tuberculosis, UniProt P9WHJ3); assay: Fluorescence Cell-Free Homogeneous Dose Retest to Identify Inhibitors of RecA-Intein Splicing Activity. [Related pubchem assays (depositor defined):AID2097, AID2223, AID489010, AID492950]; assay type: functional
T4 sequence (P9WHJ3 whole entry): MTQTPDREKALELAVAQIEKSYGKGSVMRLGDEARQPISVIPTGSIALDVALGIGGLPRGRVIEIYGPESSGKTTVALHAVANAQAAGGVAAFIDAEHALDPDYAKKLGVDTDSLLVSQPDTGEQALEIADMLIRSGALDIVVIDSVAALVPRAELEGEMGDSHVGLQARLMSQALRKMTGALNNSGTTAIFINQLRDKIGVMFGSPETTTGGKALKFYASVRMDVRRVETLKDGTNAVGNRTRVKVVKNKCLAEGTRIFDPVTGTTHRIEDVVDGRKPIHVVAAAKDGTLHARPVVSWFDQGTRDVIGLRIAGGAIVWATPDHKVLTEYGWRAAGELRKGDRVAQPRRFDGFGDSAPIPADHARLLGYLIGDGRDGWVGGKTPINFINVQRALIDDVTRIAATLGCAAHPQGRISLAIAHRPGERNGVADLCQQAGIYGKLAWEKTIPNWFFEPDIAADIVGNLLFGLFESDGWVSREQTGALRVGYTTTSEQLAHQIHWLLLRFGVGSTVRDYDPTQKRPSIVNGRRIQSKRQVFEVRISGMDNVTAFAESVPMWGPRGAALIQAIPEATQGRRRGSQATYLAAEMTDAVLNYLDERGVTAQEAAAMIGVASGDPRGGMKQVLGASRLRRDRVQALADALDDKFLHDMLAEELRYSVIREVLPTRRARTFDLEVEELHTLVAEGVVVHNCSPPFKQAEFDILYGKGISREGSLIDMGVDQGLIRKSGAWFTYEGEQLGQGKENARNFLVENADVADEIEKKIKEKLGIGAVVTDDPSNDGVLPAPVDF

[6] = biological target: T5, Replicative DNA helicase DnaB (Mycobacterium tuberculosis, UniProt P9WMR3); assay: DnaB intein splicing inhibitors, dose response, biochemical, cell-free fluorescence (AID 449749); assay type: functional
T5 sequence (P9WMR3 whole entry): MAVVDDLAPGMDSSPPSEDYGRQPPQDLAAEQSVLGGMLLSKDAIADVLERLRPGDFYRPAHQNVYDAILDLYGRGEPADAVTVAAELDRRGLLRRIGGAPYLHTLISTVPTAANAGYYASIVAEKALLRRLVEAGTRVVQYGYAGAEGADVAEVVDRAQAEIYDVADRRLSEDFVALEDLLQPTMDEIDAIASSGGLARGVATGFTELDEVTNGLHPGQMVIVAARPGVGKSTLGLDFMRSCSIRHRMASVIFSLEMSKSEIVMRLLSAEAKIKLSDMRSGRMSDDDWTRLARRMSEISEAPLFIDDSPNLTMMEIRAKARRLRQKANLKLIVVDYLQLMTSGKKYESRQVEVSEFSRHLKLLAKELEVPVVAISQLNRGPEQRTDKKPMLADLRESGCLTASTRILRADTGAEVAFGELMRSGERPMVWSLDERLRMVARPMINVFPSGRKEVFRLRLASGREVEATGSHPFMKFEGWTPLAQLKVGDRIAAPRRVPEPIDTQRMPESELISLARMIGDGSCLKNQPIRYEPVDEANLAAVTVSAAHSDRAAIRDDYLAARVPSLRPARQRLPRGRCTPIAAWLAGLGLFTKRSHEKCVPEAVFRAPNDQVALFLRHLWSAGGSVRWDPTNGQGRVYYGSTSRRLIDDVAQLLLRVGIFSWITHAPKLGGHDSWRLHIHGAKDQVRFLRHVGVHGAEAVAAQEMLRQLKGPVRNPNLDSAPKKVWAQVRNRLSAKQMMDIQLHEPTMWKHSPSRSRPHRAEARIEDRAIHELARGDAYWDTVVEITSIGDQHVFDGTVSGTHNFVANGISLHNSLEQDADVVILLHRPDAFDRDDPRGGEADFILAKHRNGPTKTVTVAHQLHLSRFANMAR

cells [7] = assay type: functional, cell-based; conditions: HEK-CNG
[8] = Intein inhibitors as potential Tuberculosis drugs, a cytotoxicity screen. [Related pubchem assays (depositor defined):AID2221, AID2223, AID434968, AID435010, AID449749, AID449750, AID489010]; assay type: functional
Leucine aminopeptidase = biological target: T6, Leucine aminopeptidase (Plasmodium falciparum 3D7, UniProt Q8IL11); assay: P. falciparum M17LAP inhibitors, primary screen, biochemical, fluorogenic H-Leu-NHMec substrate, 1536-well (AID 1619); assay type: functional
T6 sequence (Q8IL11 whole entry): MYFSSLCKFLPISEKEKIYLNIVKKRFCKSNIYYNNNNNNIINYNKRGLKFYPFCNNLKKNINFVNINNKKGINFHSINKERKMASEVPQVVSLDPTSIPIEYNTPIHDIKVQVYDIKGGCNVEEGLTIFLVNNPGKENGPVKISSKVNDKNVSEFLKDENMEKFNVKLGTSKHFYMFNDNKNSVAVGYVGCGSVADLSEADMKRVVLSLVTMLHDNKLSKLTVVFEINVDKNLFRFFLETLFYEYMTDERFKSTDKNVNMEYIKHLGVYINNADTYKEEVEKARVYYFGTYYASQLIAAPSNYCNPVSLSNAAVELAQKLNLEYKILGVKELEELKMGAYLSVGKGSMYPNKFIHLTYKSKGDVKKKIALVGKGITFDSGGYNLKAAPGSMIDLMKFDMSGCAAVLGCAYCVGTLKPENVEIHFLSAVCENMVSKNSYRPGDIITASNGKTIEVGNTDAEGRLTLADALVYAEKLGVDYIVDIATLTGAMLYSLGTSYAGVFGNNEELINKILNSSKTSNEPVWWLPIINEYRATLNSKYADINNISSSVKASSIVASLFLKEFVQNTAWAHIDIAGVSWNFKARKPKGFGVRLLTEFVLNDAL

T-cell = assay: loss of vesicle association with mouse CD8+ T cells – mouse 2C CD8+ T cells, flow cytometry, dose response (AID 485284); assay type: functional
[9] = biological target: Nucleotide-binding oligomerization domain-containing protein 2 (Homo sapiens, UniProt Q9HC29); assay: inhibition of NOD2-driven NF-kB reporter – cell-based, luminescence, uHTS, HEK293 (AID 1566); assay type: functional
HEK293 [10] = assay: cells; assay type: functional, cell-based; conditions: Homo sapiens
HEK293 [11] = assay: cells; assay type: functional, cell-based; conditions: Homo sapiens; remark: listed apart in the source
HEK293 [12] = assay: NOD2 signaling inhibitors in MDP-stimulated cells, cell-based, uHTS, luminescence (AID 2001); assay type: functional; conditions: Homo sapiens
HEK293 [13] = assay: inhibition of NOD1-driven NF-kB reporter – cell-based, luminescence, uHTS, primary screen (AID 1578); assay type: functional; conditions: Homo sapiens
[14] = biological target: T7, Type-1 angiotensin II receptor (Homo sapiens, UniProt P30556); assay: agonist activity at AGTR1 – cell-based, uHTS hits, selectivity assay for APJ receptor agonist project, dose response (AID 488865); assay type: functional;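 also: beta-arrestin recruitment to AT1 measured by enzyme fragment complementation luminescence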
T7 sequence (P30556 whole entry): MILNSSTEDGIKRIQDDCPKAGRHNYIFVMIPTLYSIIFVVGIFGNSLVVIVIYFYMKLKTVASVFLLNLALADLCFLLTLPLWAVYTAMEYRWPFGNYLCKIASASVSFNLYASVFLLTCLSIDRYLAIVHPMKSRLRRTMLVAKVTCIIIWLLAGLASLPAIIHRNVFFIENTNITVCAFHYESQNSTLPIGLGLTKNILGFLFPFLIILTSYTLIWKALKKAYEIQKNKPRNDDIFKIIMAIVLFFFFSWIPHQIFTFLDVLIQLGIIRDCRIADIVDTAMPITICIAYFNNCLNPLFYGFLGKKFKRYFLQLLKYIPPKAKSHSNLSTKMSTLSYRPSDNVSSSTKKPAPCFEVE

Kallikrein-7 = Kallikrein-7 (Homo sapiens, UniProt P49862); assay: Fluorescence Intensity-based biochemical primary high throughput dose response assay to identify activators of kallikrein-7 (K7) zymogen.
[15] = biological target: T8, DNA repair and recombination protein RAD54-like (Homo sapiens, UniProt Q92698); assay: RAD54 Holliday junction migration blockers – biochemical, fluorescence, cherry-picked samples, dose series, confirmation (AID 651657); assay type: functional
T8 sequence (Q92698 whole entry): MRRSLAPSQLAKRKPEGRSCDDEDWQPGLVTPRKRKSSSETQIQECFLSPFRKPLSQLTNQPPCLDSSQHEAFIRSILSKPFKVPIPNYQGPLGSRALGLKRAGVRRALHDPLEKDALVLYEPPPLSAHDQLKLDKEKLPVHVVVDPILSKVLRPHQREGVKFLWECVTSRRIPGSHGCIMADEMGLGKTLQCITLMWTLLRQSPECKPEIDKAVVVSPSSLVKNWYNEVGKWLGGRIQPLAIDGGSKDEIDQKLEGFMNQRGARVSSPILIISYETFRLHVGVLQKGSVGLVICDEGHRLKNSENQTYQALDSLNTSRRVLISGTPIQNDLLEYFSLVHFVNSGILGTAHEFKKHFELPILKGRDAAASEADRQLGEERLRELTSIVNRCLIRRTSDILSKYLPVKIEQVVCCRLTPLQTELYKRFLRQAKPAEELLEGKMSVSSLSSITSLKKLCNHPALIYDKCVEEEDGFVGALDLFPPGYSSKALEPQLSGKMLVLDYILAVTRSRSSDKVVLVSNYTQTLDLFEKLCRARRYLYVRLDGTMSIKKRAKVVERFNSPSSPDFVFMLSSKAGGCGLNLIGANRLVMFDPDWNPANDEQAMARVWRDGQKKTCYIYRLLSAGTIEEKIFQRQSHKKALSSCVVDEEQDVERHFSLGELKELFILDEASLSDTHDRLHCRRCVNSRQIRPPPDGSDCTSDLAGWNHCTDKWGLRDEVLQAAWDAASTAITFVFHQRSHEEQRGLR

Vibrio harveyi = assay: LuxS/LuxPQ-dependent luminescence inhibition, V. harveyi – dry powder, set 2, dose response (AID 493072); assay type: functional, organism-based
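For CC50 in this document: cells exposed to compound for 72 hours before luminescence readout.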

Sequence of Nucleotide-binding oligomerization domain-containing protein 2 (Q9HC29 whole entry, the tested form may be a part): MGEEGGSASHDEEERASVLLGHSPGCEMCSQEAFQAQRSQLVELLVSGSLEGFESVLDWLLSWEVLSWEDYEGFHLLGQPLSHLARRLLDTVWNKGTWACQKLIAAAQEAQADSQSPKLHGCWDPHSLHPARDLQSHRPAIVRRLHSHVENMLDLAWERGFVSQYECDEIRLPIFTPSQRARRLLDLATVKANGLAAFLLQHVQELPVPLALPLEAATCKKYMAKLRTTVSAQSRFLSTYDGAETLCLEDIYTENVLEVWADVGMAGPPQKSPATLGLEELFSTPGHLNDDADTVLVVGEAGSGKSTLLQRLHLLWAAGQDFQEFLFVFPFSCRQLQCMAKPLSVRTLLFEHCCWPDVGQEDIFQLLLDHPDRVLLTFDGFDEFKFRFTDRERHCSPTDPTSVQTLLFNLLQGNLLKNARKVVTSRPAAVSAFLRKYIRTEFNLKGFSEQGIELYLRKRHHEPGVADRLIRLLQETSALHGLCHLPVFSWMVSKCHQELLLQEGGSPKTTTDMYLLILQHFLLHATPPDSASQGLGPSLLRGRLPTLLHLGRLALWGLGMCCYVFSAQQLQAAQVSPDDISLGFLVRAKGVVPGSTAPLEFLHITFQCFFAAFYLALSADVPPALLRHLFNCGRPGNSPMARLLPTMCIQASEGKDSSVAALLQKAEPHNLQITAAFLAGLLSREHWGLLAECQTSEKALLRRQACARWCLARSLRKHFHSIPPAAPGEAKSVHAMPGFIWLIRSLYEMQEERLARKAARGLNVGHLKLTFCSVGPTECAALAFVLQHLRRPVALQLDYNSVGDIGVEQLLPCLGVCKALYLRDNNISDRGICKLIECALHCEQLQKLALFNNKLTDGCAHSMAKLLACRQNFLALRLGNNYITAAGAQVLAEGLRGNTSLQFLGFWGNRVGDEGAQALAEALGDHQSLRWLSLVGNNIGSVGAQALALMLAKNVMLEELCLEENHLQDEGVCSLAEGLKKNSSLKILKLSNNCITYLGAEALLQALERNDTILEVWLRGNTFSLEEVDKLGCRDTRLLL
Sequence of Kallikrein-7 (P49862 whole entry): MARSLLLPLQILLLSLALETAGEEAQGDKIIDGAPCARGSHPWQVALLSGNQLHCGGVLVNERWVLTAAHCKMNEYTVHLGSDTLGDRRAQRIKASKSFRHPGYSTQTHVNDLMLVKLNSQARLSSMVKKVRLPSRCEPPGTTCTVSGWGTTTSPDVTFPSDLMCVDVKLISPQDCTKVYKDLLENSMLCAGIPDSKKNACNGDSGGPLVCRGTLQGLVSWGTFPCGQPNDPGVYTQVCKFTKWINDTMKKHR

SMILES: CC(=O)NC(=S)NNC(=O)c1ccc(Br)cc1
- IC50 [1]: 17 µM (active)
- AC50 (cells [2]): > 52 µM (inactive)
- AC50 (cells [3]): 46.3 µM (active)
- IC50 (Bcl-2-related protein A1): > 20 µM (inactive)
- IC50 [4]: 14.9 µM (active)
- AC50 [5]: > 52 µM (inactive)

SMILES: N#CC(C#N)C(c1ccsc1)c1c(-c2ccccc2)n[nH]c1O (centres undefined)
- IC50 (Galanin receptor type 3): > 29.9 µM (inactive)
- EC50 (Protein RecA): 0.468 µM (active)
- AC50 [6]: 2.85 µM (active)
- EC50 (cells [7]): 17.4 µM (inactive)
- CC50 [8]: > 40 µM (active)
- IC50 (Leucine aminopeptidase): 36.7 µM (active)

SMILES: CC1CCCCC1NC(=O)COC(=O)c1ccc2ncsc2c1 (centres undefined)
- EC50 (T-cell): 48.4 µM (inactive)

SMILES: CCc1nc(SCC(=O)N2CCN(c3ccccc3)CC2)c2oc3ccccc3c2n1
- EC50 [9]: > 20 µM (inactive)
- EC50 (Protein RecA): > 380 µM (inactive)
- AC50 [6]: 2 µM (active)
- IC50 (HEK293 [10]): > 20 µM (inactive)
- IC50 (HEK293 [11]): 17.7 µM (active)
- IC50 (HEK293 [12]): 5.63 µM (inactive)
- EC50 (HEK293 [13]): 4.73 µM (active)

SMILES: COc1cccc2sc3cc(NCC[C@@H]4CCCN4C)ccc3c(=O)c12
- EC50 [14]: > 100 µM (inactive)
- EC50 (Kallikrein-7): > 69.5 µM (inactive)
- AC50 [15]: 9.49 µM (active)

SMILES: Cc1cccc(NC(=O)c2ccc(Oc3ccccc3)cc2)n1
- AC50 (Vibrio harveyi): 15.2 µM (active)
